Columns and labels:
[1] = system: hippocampal mRNA (Il1b, Il6, Tnfa, Il10, Cldn5); assay: Hippocampal mRNA (qRT-PCR) after acute restraint stress; assay type: in vivo, mouse; details: mice, 2 h restraint stress, Luma 3 mg/kg IP
Description: Quantitative Real-Time PCR. Mouse hippocampal tissue is homogenized with glass beads in 1 mL of TRIzol reagent using a BeadBeater (Biospec Products, Bartlesville, OK). Heavy phase-lock gel tubes enabled separation of phases following the addition of 400 μL chloroform to the sample and centrifugation at 12,000 rpm for 10 minutes at room temperature. RNA is extracted using Qiagen Rneasy kit (Qiagen, Hilden, Germany). For cDNA synthesis, 2 μg of total RNA is used (SuperScript IV Reverse Transcriptase; ThermoFisher Scientific, Waltham, MA). The purity and concentration of RNA is measured with a Nanodrop spectrophotometer; the optical density (OD) 260/280 and OD 260/230 are within 1.8-2.3. In the hippocampus, 4 key markers of pro- and anti-inflammatory cytokines and chemokines (Il1b: ID Mm00434228_m1, Tnfa: ID Mm00443258_m1, 116: ID Mm00446190_m1, and I110: ID Mm01288386_m1; ThermoFisher Scientific) are initially chosen for analysis (n=5-12 per group). In subsequent experiments, the transcripts for other markers of inflammation are chosen for analysis including Icam1 (ID Mm00516023_m1; a cell adhesion molecule involved in immune cell migration), Cldn5 (ID Mm00727012_s1; a tight junctions protein), colony stimulating factor 1 (Csf1: ID Mm00432686_m1; a factor that regulates microglia function) and its receptor Csf1r (ID Mm01266652_m1), and the nucleotide binding and oligomerization domain-like receptor family pyrin domain-containing 3 inflammasome complex (Nlrp3: Mm00840904_m1). Gapdh (ID Mm99999915_g1) is chosen as a housekeeping gene. […] All mRNAs are measured by qRT-PCR on ABI Prism 7900HT system using TaqMan Gene Expression Assays. […]
Using similar procedures as described above, serum corticosterone levels and hippocampal Cldn5 mRNA expression are measured as well (corticosterone is measured using a commercial ELISA kit).

[2] = system: patients with schizophrenia; assay: Randomized, double-blind, placebo-controlled phase 3 clinical trial in schizophrenia; assay type: in vivo, human
Description: A randomized, double-blind, placebo-controlled, phase 3 clinical trial was conducted with 450 patients with schizophrenia, aged 18 to 60 years, who were experiencing an acute exacerbation of psychosis. Patients were included if they were experiencing an acute exacerbation of psychosis, defined as a total score on the Brief Psychiatric Rating Scale of […] or higher, with a score of 4 or higher on 2 or more positive symptoms, and onset of the acute episode within 4 weeks of screening. Patients were required to have a score of 4 or higher, indicating moderate to severe disease severity, on the Clinical Global Impression-Severity of Illness (CGI-S) at screening and baseline. […]
The primary efficacy end point was mean change from baseline to day 28 in the Positive and Negative Syndrome Scale (PANSS) total score versus placebo. […] The PANSS subscale scores, social function, safety, and tolerability were also assessed. Primary and key secondary efficacy measures were assessed weekly. Safety was assessed by treatment-emergent adverse events (TEAEs), modified physical examinations, 12-lead electrocardiograms (ECGs), vital signs, and clinical laboratory tests (blood and urine samples for clinical laboratory analysis were collected from all subjects upon screening and on Days 1, 8, 28, and 33, following overnight fast).

[3] = system: blood-brain barrier (NaFl brain penetration); assay: BBB permeability assay (sodium fluorescein), LPS paradigm; assay type: in vivo, mouse; details: mice, 2 h, label LPS = LPS alone, label Luma = Luma 3 mg/kg IP co-injected with LPS
Description: BBB Permeability Assay. […] Mice are perfused with 15 ml 1×PBS solution.
Systemic inflammation is associated with increased permeability of the BBB, and this has been discussed as a potential factor underlying depression pathophysiology. […] Forty-five minutes before sample collection, mice receive NaFl injections (200 μl of 10% solution, IP) (Table 3).

[4] = relative change normalized to control (Dct method)

| Compound | Hippocampal mRNA expression Cldn5 ([1]; normalized to control) | Hippocampal cytokine mRNA expression IL-1b [1, 4] | Hippocampal cytokine mRNA expression IL-6 [1, 4] | Symptoms of schizophrenia ([2]; patients with acute exacerbation of psychosis, 60 mg or 40 mg lumateperone tosylate once daily for 28 days vs placebo) | Safety profile ([2]; patients with schizophrenia, 60 mg or 40 mg lumateperone tosylate once daily for 28 days) | NaFl brain penetration (cerebrum/serum ratio) [3] |
| --- | --- | --- | --- | --- | --- | --- |
| CN1CCN2c3c(cccc31)[C@@H]1CN(CCCC(=O)c3ccc(F)cc3)CC[C@@H]12 [Luma, lumateperone] | 0.330 | 0.39 | −0.051 | effective for improving the symptoms of schizophrenia | favorable safety profile | – |
| lipopolysaccharide [LPS, reference compound] | – | – | – | – | – | 1.406 ± 0.0873 arbitrary units normalized to control |
